# Test results taken from patent publication US20250228239A1, “MOLECULES HAVING PESTICIDAL UTILITY, AND INTERMEDIATES, COMPOSITIONS, AND PROCESSES, RELATED THERETO” (priority 2024, published 2025).
# Assays:
# [1] = test system: Beet Armyworm (Spodoptera exigua, LAPHEG); assay: Bioassays on Beet Armyworm (BAW), 128-well diet tray assay; assay type: in vivo; settings: Spodoptera exigua; Beet Armyworm; rating class; read-out: BAW
# Method in brief: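 Eight diet wells per compound were treated at 50 μg/cm^2 (acetone-water 90:10), dried, then infested with 1–5 second-instar larvae each. After five to seven days at 25 °C under 14:10 photoperiod, mortality was scored and averaged across wells.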
# [2] = test system: Cabbage Looper (Trichoplusia ni, TRIPNI); assay: Bioassays on Cabbage Looper (CL), 128-well diet tray assay; assay type: in vivo; settings: Trichoplusia ni; Cabbage Looper; rating class; read-out: CL
# Method in brief: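 Second-instar larvae (1–5 per well) placed on artificial diet surface-treated with 50 μg/cm^2 test molecule applied in 90:10 acetone-water and dried. Held at 25° C., 14:10 light-dark, for five to seven days. Percent mortality scored per well and averaged over eight wells.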
SMILES,pest or weed control at 50 µg/cm2 [1] [%],pest or weed control at 50 µg/cm2 [2] [%]
"O=C(Nc1cc(NC(=O)C(F)(F)F)c(F)cc1F)c1cc(NC(=O)[C@H]2[C@H](c3cc(Cl)c(Cl)c(Cl)c3)C2(Cl)Cl)cc(F)c1Cl [F1405, 2-Chloro-5-((1R,3R)-2,2-dichloro-3-(3,4,5-trichlorophenyl)cyclopropane-1-carboxamido)-N-(2,4-difluoro-5-(2,2,2-trifluoroacetamido)phenyl)-3-fluorobenzamide]",50 to 100,50 to 100
"O=C(Nc1cc(NC(=O)C(F)F)c(F)cc1F)c1cc(NC(=O)[C@H]2[C@H](c3ccc(F)c(C(F)(F)F)c3)C2(Cl)Cl)cc(F)c1Cl [F1406, 2-Chloro-5-((1R,3R)-2,2-dichloro-3-(4-fluoro-3-(trifluoromethyl)phenyl)cyclopropane-1-carboxamido)-N-(5-(2,2-difluoroacetamido)-2,4-difluorophenyl)-3-fluorobenzamide]",50 to 100,50 to 100
"O=C(Nc1cc(NC(=O)C(F)(F)F)c(F)cc1F)c1cc(NC(=O)[C@H]2[C@H](c3ccc(F)c(C(F)(F)F)c3)C2(Cl)Cl)cc(F)c1Cl [F1407, 2-Chloro-5-((1R,3R)-2,2-dichloro-3-(4-fluoro-3-(trifluoromethyl)phenyl)cyclopropane-1-carboxamido)-N-(2,4-difluoro-5-(2,2,2-trifluoroacetamido)phenyl)-3-fluorobenzamide]",50 to 100,50 to 100
"O=C(Nc1cc(NC(=O)C(F)F)c(F)cc1F)c1cc(NC(=O)[C@H]2[C@H](c3cc(Cl)cc(Cl)c3)C2(Cl)Cl)cc(F)c1Cl [F1408, 2-Chloro-5-((1R,3R)-2,2-dichloro-3-(3,5-dichlorophenyl)cyclopropane-1-carboxamido)-N-(5-(2,2-difluoroacetamido)-2,4-difluorophenyl)-3-fluorobenzamide]",50 to 100,50 to 100
"O=C(Nc1cc(NC(=O)C(F)(F)F)c(F)cc1F)c1cc(NC(=O)[C@H]2[C@H](c3cc(Cl)cc(Cl)c3)C2(Cl)Cl)cc(F)c1Cl [F1409, 2-Chloro-5-((1R,3R)-2,2-dichloro-3-(3,5-dichlorophenyl)cyclopropane-1-carboxamido)-N-(2,4-difluoro-5-(2,2,2-trifluoroacetamido)phenyl)-3-fluorobenzamide]",50 to 100,50 to 100
"O=C(Nc1ccc(F)c(NC(=O)C(F)F)c1F)c1cc(NC(=O)[C@H]2[C@H](c3ccc(Cl)c(Br)c3)C2(Cl)Cl)ccc1Cl [F1411, 5-((1R,3R)-3-(3-Bromo-4-chlorophenyl)-2,2-dichlorocyclopropane-1-carboxamido)-2-chloro-N-(3-(2,2-difluoroacetamido)-2,4-difluorophenyl)benzamide]",50 to 100,50 to 100
"CC(=O)Nc1c(Cl)ccc(NC(=O)c2cc(NC(=O)[C@H]3[C@H](c4ccc(F)c(C(F)(F)F)c4)C3(Cl)Cl)ccc2Cl)c1Cl [F1412, N-(3-Acetamido-2,4-dichlorophenyl)-2-chloro-5-((1R,3R)-2,2-dichloro-3-(4-fluoro-3-(trifluoromethyl)phenyl)cyclopropane-1-carboxamido)benzamide]",50 to 100,50 to 100
"Cc1cc(NC(=O)[C@H]2[C@H](c3ccc(Cl)c(Cl)c3)C2(Cl)Cl)cc(C(=O)Nc2c(F)ccc(N)c2F)c1Cl [F1426, N-(3-Amino-2,6-difluorophenyl)-2-chloro-5-((1R,3R)-2,2-dichloro-3-(3,4-dichlorophenyl)cyclopropane-1-carboxamido)-3-methylbenzamide]",50 to 100,50 to 100
"Cc1cc(NC(=O)[C@H]2[C@H](c3cc(Cl)c(Cl)c(Cl)c3)C2(Cl)Cl)cc(C(=O)Nc2c(F)ccc(N)c2F)c1Cl [F1427, N-(3-Amino-2,6-difluorophenyl)-2-chloro-5-((1R,3R)-2,2-dichloro-3-(3,4,5-trichlorophenyl)cyclopropane-1-carboxamido)-3-methylbenzamide]",50 to 100,50 to 100
"Cc1cc(NC(=O)[C@H]2[C@H](c3ccc(F)c(C(F)(F)F)c3)C2(Cl)Cl)cc(C(=O)Nc2c(F)ccc(N)c2F)c1Cl [F1428, N-(3-Amino-2,6-difluorophenyl)-2-chloro-5-((1R,3R)-2,2-dichloro-3-(4-fluoro-3-(trifluoromethyl)phenyl)cyclopropane-1-carboxamido)-3-methylbenzamide]",50 to 100,50 to 100
"Cc1cc(NC(=O)[C@H]2[C@H](c3ccc(Cl)c(Cl)c3)C2(Cl)Cl)cc(C(=O)Nc2c(F)ccc(NC(=O)C(F)F)c2F)c1Cl [F1429, 2-Chloro-5-((1R,3R)-2,2-dichloro-3-(3,4-dichlorophenyl)cyclopropane-1-carboxamido)-N-(3-(2,2-difluoroacetamido)-2,6-difluorophenyl)-3-methylbenzamide]",50 to 100,50 to 100
"Cc1cc(NC(=O)[C@H]2[C@H](c3ccc(Cl)c(Cl)c3)C2(Cl)Cl)cc(C(=O)Nc2c(F)ccc(NC(=O)C(F)(F)F)c2F)c1Cl [F1430, 2-Chloro-5-((1R,3R)-2,2-dichloro-3-(3,4-dichlorophenyl)cyclopropane-1-carboxamido)-N-(2,6-difluoro-3-(2,2,2-trifluoroacetamido)phenyl)-3-methylbenzamide]",50 to 100,50 to 100
"Cc1cc(NC(=O)[C@H]2[C@H](c3cc(Cl)c(Cl)c(Cl)c3)C2(Cl)Cl)cc(C(=O)Nc2c(F)ccc(NC(=O)C(F)F)c2F)c1Cl [F1431, 2-Chloro-5-((1R,3R)-2,2-dichloro-3-(3,4,5-trichlorophenyl)cyclopropane-1-carboxamido)-N-(3-(2,2-difluoroacetamido)-2,6-difluorophenyl)-3-methylbenzamide]",50 to 100,50 to 100
"Cc1cc(NC(=O)[C@H]2[C@H](c3cc(Cl)c(Cl)c(Cl)c3)C2(Cl)Cl)cc(C(=O)Nc2c(F)ccc(NC(=O)C(F)(F)F)c2F)c1Cl [F1432, 2-Chloro-5-((1R,3R)-2,2-dichloro-3-(3,4,5-trichlorophenyl)cyclopropane-1-carboxamido)-N-(2,6-difluoro-3-(2,2,2-trifluoroacetamido)phenyl)-3-methylbenzamide]",50 to 100,50 to 100
"CC(=O)Nc1c(F)ccc(NC(=O)c2cc(NC(=O)[C@H]3[C@H](c4cc(Cl)c(Cl)c(Cl)c4)C3(Cl)Cl)cc(F)c2F)c1F [F1433, N-(3-Acetamido-2,4-difluorophenyl)-5-((1R,3R)-2,2-dichloro-3-(3,4,5-trichlorophenyl)cyclopropane-1-carboxamido)-2,3-difluorobenzamide]",50 to 100,50 to 100
"Cc1cc(NC(=O)[C@H]2[C@H](c3ccc(Cl)c(Cl)c3)C2(Cl)Cl)cc(C(=O)Nc2ccc(F)c(N)c2F)c1Cl [F1446, N-(3-Amino-2,4-difluorophenyl)-2-chloro-5-((1R,3R)-2,2-dichloro-3-(3,4-dichlorophenyl)cyclopropane-1-carboxamido)-3-methylbenzamide]",50 to 100,50 to 100
"Cc1cc(NC(=O)[C@H]2[C@H](c3cc(Cl)c(Cl)c(Cl)c3)C2(Cl)Cl)cc(C(=O)Nc2ccc(F)c(N)c2F)c1Cl [F1449, N-(3-Amino-2,4-difluorophenyl)-2-chloro-5-((1R,3R)-2,2-dichloro-3-(3,4,5-trichlorophenyl)cyclopropane-1-carboxamido)-3-methylbenzamide]",50 to 100,50 to 100
"Cc1cc(NC(=O)[C@H]2[C@H](c3ccc(F)c(C(F)(F)F)c3)C2(Cl)Cl)cc(C(=O)Nc2ccc(F)c(N)c2F)c1Cl [F1458, N-(3-Amino-2,4-difluorophenyl)-2-chloro-5-((1R,3R)-2,2-dichloro-3-(4-fluoro-3-(trifluoromethyl)phenyl)cyclopropane-1-carboxamido)-3-methylbenzamide]",50 to 100,50 to 100
"Nc1c(F)ccc(NC(=O)c2cc(NC(=O)[C@H]3[C@H](c4ccc(Cl)c(Cl)c4)C3(Cl)Cl)ccc2F)c1F [F1459, N-(3-Amino-2,4-difluorophenyl)-5-((1R,3R)-2,2-dichloro-3-(3,4-dichlorophenyl)cyclopropane-1-carboxamido)-2-fluorobenzamide]",50 to 100,50 to 100
"CN(C(=O)C(F)F)c1c(F)ccc(NC(=O)c2cc(NC(=O)[C@H]3[C@H](c4cc(Cl)cc(Cl)c4)C3(Cl)Cl)ccc2Cl)c1F [F1462, 2-Chloro-5-((1R,3R)-2,2-dichloro-3-(3,5-dichlorophenyl)cyclopropane-1-carboxamido)-N-(3-(2,2-difluoro-N-methylacetamido)-2,4-difluorophenyl)benzamide]",50 to 100,50 to 100
"O=C(Nc1ccc(F)c(NC(=O)C(F)(F)C(F)(F)C(F)(F)F)c1F)c1cc(NC(=O)[C@H]2[C@H](c3ccc(Cl)c(Cl)c3)C2(Cl)Cl)ccc1Cl [F1463, 2-Chloro-5-((1R,3R)-2,2-dichloro-3-(3,4-dichlorophenyl)cyclopropane-1-carboxamido)-N-(2,4-difluoro-3-(2,2,3,3,4,4,4-heptafluorobutanamido)phenyl)benzamide]",50 to 100,50 to 100
"O=C(Nc1ccc(F)cc1F)c1c(Cl)ccc(NC(=O)[C@H]2[C@H](c3ccc(F)c(Cl)c3)C2(Cl)Cl)c1F [F1464, 6-Chloro-3-((1R,3R)-2,2-dichloro-3-(3-chloro-4-fluorophenyl)cyclopropane-1-carboxamido)-N-(2,4-difluorophenyl)-2-fluorobenzamide]",50 to 100,50 to 100
